{"source": "paper PMC7844219", "about": "“Antifibrotic effect of novel neutrophil gelatinase-associated lipocalin inhibitors in cardiac and renal disease models” (Scientific Reports, 2021)", "key": {"mNGAL": {"target": "T1, mNGAL (Mus musculus, UniProt P11672)", "T1 construct": "purchased R&D Systems", "T1 sequence (P11672 21-200)": "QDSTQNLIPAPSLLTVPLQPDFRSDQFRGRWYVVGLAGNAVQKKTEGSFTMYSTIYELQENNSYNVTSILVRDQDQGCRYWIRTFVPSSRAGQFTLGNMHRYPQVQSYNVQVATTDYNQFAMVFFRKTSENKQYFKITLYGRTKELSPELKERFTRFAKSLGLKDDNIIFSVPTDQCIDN", "assay": "mNGAL-induced gene expression in primary mouse kidney fibroblasts (RT-PCR)", "type": "cell-based", "method": "Primary human cardiac fibroblasts (HCF) were obtained from Promocell (Heidelberg, Germany) and maintained in Fibroblast Media 3 following manufacturer’s instructions (Promocell). Cells were used between passages 5 and 7. Cells were stimulated with recombinant hNGAL (500 ng/mL, R&D Systems) or with TGFβ (10 ng/mL, R&D Systems) for 24 h. To assess cell proliferation the MTT test was used following provider’s instructions (Roche). For protein analysis. Primary Mouse Kidney Fibroblasts (MKF) were isolated from Wild Type (WT) mice. Briefly, 8 weeks old mice were sacrificed by cervical dislocation and kidneys were cleaned and rinsed in cold DPBS (Dulbecco's Phosphate-Buffered Saline). The renal cortex was minced and incubated in Dulbecco’s modified eagle medium/Nutrient mixture F-12 (DMEM/F12, Sigma) containing 1 mg/mL collagenase A (Roche) during 25 min at 37 °C. The digestion was inactivated by adding culture medium (DMEM/F12 + 10% FBS) then the cell suspension was passed through a 100-μm cell strainer. After centrifugation, the pellet (containing MKF) was diluted with culture medium then plated in 75 cm^2 culture flask. After 24 h MKF were washed with DPBS before replacement of fresh culture medium. Thereafter, culture medium was changed every 48 h. Once 70–80% confluent, MKF were trypsinized and plated in 12 or 6-well plates. For experimental use, MKF were starved with culture medium containing only 3% FBS. MKF were treated with mNGAL (500 ng/mL, R&D Systems) or with TGFβ (10 ng/mL, R&D Systems) for 6 h for gene expression analysis.\nFrozen tissues (kidneys, heart) were homogenized in TRIzol (Life Technologies, Illinois, USA) using FastPrep beads (MP-Bio, CA, USA). cDNAs were generated using the Superscript II reverse transcriptase kit (Invitrogen,NY, USA), and qPCR was performed as previously described. Briefly, transcript levels were analysed in a CFX396 apparatus (Biorad). The reactions were performed in duplicate for each sample using the IQ SYBR Green supermix Kit (Biorad,CA, USA). […]"}, "[1]": {"test_system": "myocardial infarction mouse model", "assay": "Myocardial infarction (MI) mouse model, left coronary artery ligation", "type": "in vivo", "settings": "MI mice", "method": "Animals were housed in a climate-controlled facility with a 12-h/12-h light/dark cycle and provided free access to food and water. Experiments were approved by the Darwin ethics committee of Sorbonne University, and conducted according to the INSERM animal care and use committee guidelines. The NGAL inhibitor GP1 was incorporated in regular chow (A04, Safe, Augy, France) at the dose of 625 mg GP1/kg of chow to achieve a low dose of 100 mg/kg/day of GP1 administered to the mice (based on a daily consumption of 4 g of chow).\nMyocardial infarction (MI) was induced as previously described. Briefly, Chronic Heart Failure (CHF) resulted from left ventricle MI that was induced by left coronary artery ligation in 8 week-old male mice. Mice were anesthetized with intraperitoneal injections of ketamine (90 mg/kg, Merial, France) and xylazine (3.6 mg/kg, Bayer, France), followed by artificial ventilation. Anesthesia and sedation were controlled by monitoring heart rate and by performing paw pinch reflex and corneal reflex tests, before a thoracotomy was performed. The left main coronary artery was ligated close to its origin. After surgery, analgesia was prolonged during the awakening phase by an intramuscular injection of Beprucare (50 µg/kg). Post-infarction mortality in this mouse model is about 30–40%, primarily occurring around days 4–7 after MI. Sham-operated mice (control) were subjected to the same protocol except that the artery was not ligated. The inhibitor was administered the 8 day after MI for the indicated period. Tissue were harvested after 12 weeks after MI. Left ventricle diastolic and systolic diameters were measured in anesthetized (isofluorane 1.5%) mice, according to the American Society of Echocardiography’s leading-edge method (using Vivid 7 echograph a 14 MHz probe). In addition, LV outflow velocity was measured by pulsed waves, and CO was calculated as follows:\nCO=aortic VTI×π×LV outflow diameter/2^2×heart rate, where VTI is velocity–time integral.\nLV hemodynamic was assessed as described previously. Briefly, mice were anesthetized (chloral 320 mg/kg, IP) and the carotid artery cannulated with a pressure–volume catheter (SPR839, Millar-Instruments, USA) and the catheter was advanced into the LV. Pressure–volume loops were obtained at baseline and during loading by gently occluding the abdominal aorta. LV end-systolic and end-diastolic pressures, dP/dtmax/min, LV relaxation constant tau and were measured/calculated with IOX software (EMKA, France). Systolic BP was measured by tail-cuff plethysmography in trained conscious mice at weeks 8–10 using a BP2000 Visitech model. BP was measured every day in the same room at the same hour for 5 consecutive days. The BP measurements (expressed as mmHg) presented are the averages of the last 3 days.\nIn the MI model, heart was harvested after hemodynamics and the atria and the ventricles were separated and weighed individually. A section of the left ventricle was immersed in Bouin fixative solution. In the CKD model, kidneys were harvested and a section was immersed in paraformaldehyde fixative solution. After fixation, the sections were dehydrated and embedded in paraffin. From these sections, 5-μm thick histologic slices were obtained and were stained with Sirius Red. For the measurement of cardiac or renal collagen density, slides were examined and photographed under a light microscope (Zeiss) at 40× magnification. Collagen content was calculated as percentage of collagen area to total area of the image. Perivascular collagen was excluded from the analysis. For tubular lesions scoring, kidney slides were stained with Periodic Acid-Schiff kit (Sigma) and the score of tubules with injury (epithelial cell necrosis and detachment, and tubular dilation) was analyzed blinded to the experimental groups. […]"}}}
{"smiles": "CC(=O)c1cccc(S(=O)(=O)NCc2ccccc2-n2cccn2)c1", "note": "[GPZ614741]", "values": [{"measurement": "NGAL-induced collagen I expression", "setting": "mNGAL; 1 µM, mouse kidney fibroblasts, Fig. S4", "value": "prevented"}, {"measurement": "mNGAL-induced expression of profibrotic markers (Col I, fibronectin, αSMA)", "setting": "mNGAL; 10 µM, MKF, mRNA, Fig. 3A", "value": "inhibited"}, {"measurement": "mNGAL-induced expression of inflammatory markers (IL6, MCP1)", "setting": "mNGAL; 10 µM, MKF, mRNA, Fig. 3B", "value": "inhibited"}, {"measurement": "SV (stroke volume)", "setting": "[1]; GP1 100 mg/kg/day in the food, three months, MI untreated 0.062 ± 0.005", "value": "0.086 ± 0.004", "unit": "ml/beat"}, {"measurement": "LVESD (left ventricular end systolic diameter)", "setting": "[1]; GP1 100 mg/kg/day in the food, three months, MI untreated 5.47 ± 0.13", "value": "4.90 ± 0.39", "unit": "mm"}, {"measurement": "tau 1/2 (relaxation constant)", "setting": "[1]; GP1 100 mg/kg/day in the food, three months, MI untreated 5.82 ± 0.32", "value": "4.33 ± 0.21"}, {"measurement": "LVEDP", "setting": "[1]; GP1 100 mg/kg/day in the food, three months, MI untreated 5.91 ± 0.49", "value": "4.41 ± 0.57", "unit": "mmHg"}, {"measurement": "LVEDD (left ventricular end diastolic diameter)", "setting": "[1]; GP1 100 mg/kg/day in the food, three months, MI untreated 6.31 ± 0.12", "value": "5.88 ± 0.39", "unit": "mm"}, {"measurement": "tau e (relaxation constant)", "setting": "[1]; GP1 100 mg/kg/day in the food, three months, MI untreated 7.97 ± 0.45", "value": "6.08 ± 0.27"}, {"measurement": "LVW/TL (left ventricle weight/tibia length)", "setting": "[1]; GP1 100 mg/kg/day in the food, three months, MI untreated 8.3 ± 0.3", "value": "8.8 ± 0.6", "unit": "mg/mm"}, {"measurement": "HW/TL (heart weight/tibia length)", "setting": "[1]; GP1 100 mg/kg/day in the food, three months, MI untreated 10.9 ± 0.4", "value": "11.3 ± 0.8", "unit": "mg/mm"}, {"measurement": "FS (fractional shortening)", "setting": "[1]; GP1 100 mg/kg/day in the food, three months, MI untreated 13.4 ± 1.0", "value": "17.2 ± 1.3", "unit": "%"}, {"measurement": "CO (cardiac output)", "setting": "[1]; GP1 100 mg/kg/day in the food, three months, MI untreated 29.4 ± 1.9", "value": "47.1 ± 3.3", "unit": "mL/min"}, {"measurement": "LVESP (left ventricular end systolic pressure)", "setting": "[1]; GP1 100 mg/kg/day in the food, three months, MI untreated 78.82 ± 2.76", "value": "82.31 ± 4.22", "unit": "mmHg"}, {"measurement": "LV (dP/dtmin), relaxation index", "setting": "[1]; GP1 100 mg/kg/day in the food, three months, MI untreated 3117 ± 253", "value": "4487 ± 413"}, {"measurement": "LV (dP/dtmax), contractility index", "setting": "[1]; GP1 100 mg/kg/day in the food, three months, MI untreated 3894 ± 259", "value": "4501 ± 320"}, {"measurement": "LV interstitial collagen deposition vs non-treated MI group", "setting": "[1]; GP1 100 mg/kg/day in the food, Fig. 2A", "value": "significantly lower"}, {"measurement": "Infarct size in mid LV sections", "setting": "[1]; GP1-treated, untreated 39.0 ± 2.3, n = 4–9, NS", "value": "40.0 ± 1.8", "unit": "%"}, {"measurement": "Upregulation of cardiac IL6 protein and inflammatory markers CD68, CD80, CD86", "setting": "[1]; GP1, Fig. 2E", "value": "significantly prevented"}, {"measurement": "Upregulation of Col I, αSMA and CTGF protein levels", "setting": "[1]; three months of GP1, Fig. 2B–D", "value": "significantly prevented"}]}
